Experiments:
[1] = target: PI3K-alpha (Homo sapiens, UniProt P42336); assay: PI3K-alpha fluorescence polarization assay; assay type: biochemical; conditions: read-out: PI3Kα Avg. IC50
[2] = target: PI3K-gamma (Homo sapiens, UniProt P48736); assay: PI3K-gamma fluorescence polarization assay; assay type: biochemical; conditions: PI3Kγ Avg. IC50
Experimental: PI3K-Alpha, PI3K-Beta, PI3K-Gamma, and PI3K-delta Fluorescence Polarization Assay Protocols
PI3-Kinase reactions were performed in 5 mM HEPES, pH 7, 2.5 mM MgCl2, and 25 μM ATP, with diC8-PI(4,5)P2 (Echelon, Salt Lake City Utah) as substrate. Nunc 384-well black polypropylene fluorescent plates were used for PI3K assays. Reactions were quenched by the addition of EDTA to a final concentration of 10 mM. Final reaction volumes were 10 μl. For evaluation of PI3K inhibitors, 5 ng of enzyme (PI3K-alpha, beta, gamma, or delta) and 2.5 μM of substrate was used per […] reaction volume, and inhibitor concentrations ranged from 100 μM to 20 μM; the final level of DMSO in reactions never exceeded 2%. Reactions were allowed to proceed for one hour at 25° C. After 1 hour, GST-tagged GRP1 (general receptor for phosphoinositides) PH domain fusion protein was added to a final concentration of 100 nM, and BODIPY-TMRI(1,3,4,5)P4 (Echelon) was also added to a final concentration of 5 nM. Final sample volumes were 25 μl with a final DMSO concentration of 0.8%. Assay Plates were read on Perkin-Elmer Envision plate readers with appropriate filters for Tamra [BODIPY-TMRI(1,3,4,5)P4]. Data obtained were used to calculate enzymatic activity and enzyme inhibition by inhibitor compounds.

PI3K-gamma, sequence (P48736 whole entry, species assumed): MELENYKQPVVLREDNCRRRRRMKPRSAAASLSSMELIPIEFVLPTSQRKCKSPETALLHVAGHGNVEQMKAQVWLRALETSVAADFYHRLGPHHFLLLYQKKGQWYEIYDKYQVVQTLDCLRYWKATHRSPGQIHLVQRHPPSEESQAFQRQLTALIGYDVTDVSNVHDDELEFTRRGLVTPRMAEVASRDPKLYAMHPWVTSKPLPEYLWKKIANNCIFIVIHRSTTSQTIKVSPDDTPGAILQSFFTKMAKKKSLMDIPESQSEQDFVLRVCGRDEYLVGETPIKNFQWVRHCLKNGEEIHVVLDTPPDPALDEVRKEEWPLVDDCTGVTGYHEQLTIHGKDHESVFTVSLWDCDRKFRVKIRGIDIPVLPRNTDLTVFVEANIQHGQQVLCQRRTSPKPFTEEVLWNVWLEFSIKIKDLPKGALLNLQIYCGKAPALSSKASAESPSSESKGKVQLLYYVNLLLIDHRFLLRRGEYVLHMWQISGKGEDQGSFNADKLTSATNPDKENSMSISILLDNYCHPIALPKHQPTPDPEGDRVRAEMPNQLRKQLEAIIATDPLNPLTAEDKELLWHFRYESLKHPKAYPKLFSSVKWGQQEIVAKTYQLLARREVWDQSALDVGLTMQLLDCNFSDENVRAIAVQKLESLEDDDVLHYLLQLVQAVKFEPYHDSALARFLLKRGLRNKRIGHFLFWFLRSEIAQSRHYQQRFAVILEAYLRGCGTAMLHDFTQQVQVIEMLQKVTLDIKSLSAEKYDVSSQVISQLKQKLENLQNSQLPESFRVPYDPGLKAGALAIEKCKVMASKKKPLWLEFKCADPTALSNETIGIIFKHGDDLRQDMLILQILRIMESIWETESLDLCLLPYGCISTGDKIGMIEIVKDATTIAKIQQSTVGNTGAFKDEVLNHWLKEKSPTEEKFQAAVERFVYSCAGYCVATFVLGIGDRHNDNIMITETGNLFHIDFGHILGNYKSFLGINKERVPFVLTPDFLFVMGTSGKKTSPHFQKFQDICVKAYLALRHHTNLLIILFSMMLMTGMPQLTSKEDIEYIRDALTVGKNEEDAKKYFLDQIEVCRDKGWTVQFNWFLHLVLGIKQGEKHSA
PI3K-alpha, sequence (P42336 whole entry, species assumed): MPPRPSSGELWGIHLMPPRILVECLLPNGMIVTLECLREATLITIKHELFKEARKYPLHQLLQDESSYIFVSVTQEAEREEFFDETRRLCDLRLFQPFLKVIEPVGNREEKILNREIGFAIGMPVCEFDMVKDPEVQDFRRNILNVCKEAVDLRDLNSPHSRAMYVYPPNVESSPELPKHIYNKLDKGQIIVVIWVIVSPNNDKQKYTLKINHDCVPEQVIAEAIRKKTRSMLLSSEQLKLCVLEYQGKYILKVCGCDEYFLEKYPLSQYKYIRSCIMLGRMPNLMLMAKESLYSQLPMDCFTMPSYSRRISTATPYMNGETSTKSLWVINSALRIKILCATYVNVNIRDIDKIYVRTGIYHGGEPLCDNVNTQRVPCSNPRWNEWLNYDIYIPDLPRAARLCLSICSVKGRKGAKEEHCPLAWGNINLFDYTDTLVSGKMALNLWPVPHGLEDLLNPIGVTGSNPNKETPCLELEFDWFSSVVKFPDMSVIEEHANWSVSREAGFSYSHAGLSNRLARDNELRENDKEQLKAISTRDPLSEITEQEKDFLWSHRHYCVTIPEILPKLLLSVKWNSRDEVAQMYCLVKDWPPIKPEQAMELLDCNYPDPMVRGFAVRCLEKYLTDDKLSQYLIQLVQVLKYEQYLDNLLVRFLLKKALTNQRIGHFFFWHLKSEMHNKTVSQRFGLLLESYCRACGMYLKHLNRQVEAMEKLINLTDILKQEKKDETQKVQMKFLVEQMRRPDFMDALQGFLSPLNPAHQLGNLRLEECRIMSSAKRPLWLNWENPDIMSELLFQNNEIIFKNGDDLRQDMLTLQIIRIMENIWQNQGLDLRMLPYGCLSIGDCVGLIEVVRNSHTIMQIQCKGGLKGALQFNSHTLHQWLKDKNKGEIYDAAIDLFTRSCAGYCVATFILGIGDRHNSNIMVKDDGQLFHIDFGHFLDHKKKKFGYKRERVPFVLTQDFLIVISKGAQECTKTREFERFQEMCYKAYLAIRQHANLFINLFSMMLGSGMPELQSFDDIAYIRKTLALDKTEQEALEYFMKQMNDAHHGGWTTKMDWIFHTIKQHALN
PI3K-alpha, sequence (P27986 whole entry partner, species assumed): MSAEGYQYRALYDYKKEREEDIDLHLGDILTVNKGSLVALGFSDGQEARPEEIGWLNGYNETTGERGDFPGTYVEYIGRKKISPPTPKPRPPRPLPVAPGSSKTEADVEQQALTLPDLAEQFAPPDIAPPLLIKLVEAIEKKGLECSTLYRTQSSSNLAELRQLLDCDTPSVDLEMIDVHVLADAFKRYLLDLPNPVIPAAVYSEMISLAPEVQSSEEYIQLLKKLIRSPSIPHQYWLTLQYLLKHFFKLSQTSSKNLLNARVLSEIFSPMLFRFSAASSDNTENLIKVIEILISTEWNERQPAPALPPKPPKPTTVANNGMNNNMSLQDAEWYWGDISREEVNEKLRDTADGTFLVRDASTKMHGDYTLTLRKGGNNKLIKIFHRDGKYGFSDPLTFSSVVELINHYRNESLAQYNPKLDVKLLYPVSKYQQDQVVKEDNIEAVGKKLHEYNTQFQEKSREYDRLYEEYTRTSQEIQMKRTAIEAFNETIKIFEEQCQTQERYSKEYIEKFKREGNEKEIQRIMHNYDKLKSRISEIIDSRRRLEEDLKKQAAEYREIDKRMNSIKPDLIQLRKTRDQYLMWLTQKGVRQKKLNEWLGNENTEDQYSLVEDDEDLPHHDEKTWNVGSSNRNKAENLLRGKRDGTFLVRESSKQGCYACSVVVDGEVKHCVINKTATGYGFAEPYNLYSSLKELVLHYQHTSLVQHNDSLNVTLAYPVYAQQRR

Structure (SMILES) | IC50 [1] | IC50 [2]
COc1ccc2c(c1)c(/C=C1\Oc3ccc(NC(=O)NC4CC4)cc3C1=O)cn2CCCN(C)C [Compound 560, 1-cyclopropyl-3-[(2Z)-2-({1-[3-(dimethylamino)propyl]-5-methoxy-1H-indol-3-yl}methylene)-3-oxo-2,3-dihydro-1-benzofuran-5-yl]urea] | 132 nM | 1600 nM
COc1ccc2[nH]cc(C=C3Oc4c(O)cccc4C3=O)c2c1 [Compound 482, 7-hydroxy-2-[(5-methoxy-1H-indol-3-yl)methylene]-1-benzofuran-3(2H)-one] | > 10000 nM | > 10000 nM
CNC(=O)Nc1ccc2c(c1)C(=O)/C(=C/c1c(C3CCCC3)n(CCN3CCN(C)CC3)c3ccc(OC)cc13)O2 [Compound 561, 1-[(2Z)-2-({2-cyclopentyl-5-methoxy-1-[2-(4-methylpiperazin-1-yl)ethyl]-1Hindol-3-yl}methylene)-3-oxo-2,3-dihydro-1-benzofuran-5-yl]-3-methylurea] | 3.15 nM | 378 nM
CCNC(=O)Nc1ccc2c(c1)C(=O)/C(=C/c1cn(C)c3cccc(-c4ccccc4)c13)O2 [Compound 543, 1-ethyl-3-{(2Z)-2-[(1-methyl-4-phenyl-1H-indol-3-yl)methylidene]-3-oxo-2,3-dihydro-1-benzofuran-5-yl}urea] | > 10000 nM | > 10000 nM
COc1ccc2[nH]c(-c3ccccc3)c(C=C3Oc4c(ccc(O)c4O)C3=O)c2c1 [Example 71, 6,7-dihydroxy-2-[(5-methoxy-2-phenyl-1H-indol-3-yl)methylene]-1-benzofuran-3(2H)-one] | 74.2 nM | 439 nM
COc1ccc2[nH]cc(C=C3Oc4cc(O)cc(Br)c4C3=O)c2c1 [Compound 505, 4-bromo-6-hydroxy-2-[(5-methoxy-1H-indol-3-yl)methylene]-1-benzofuran-3(2H)-one] | 120 nM | 813 nM
Cc1cccc2c(/C=C3\Oc4ccccc4C3=O)c[nH]c12 [Example 23, (2Z)-2-[(7-methyl-1H-indol-3-yl)methylene]-1-benzofuran-3(2H)-one] | > 10000 nM | –
COc1ccc2c(c1)c(C=C1Oc3c(ccc(O)c3O)C1=O)c(C)n2CCCCN1CCN(CCO)CC1 [Example 146, 6,7-dihydroxy-2-[(1-{4-[4-(2-hydroxyethyl)piperazin-1-yl]butyl}-5-methoxy-2-methyl-1H-indol-3-yl)methylene]-1-benzofuran-3(2H)-one] | 850 nM | –
O=C1/C(=C/c2c[nH]c3ccccc23)Sc2ccccc21 [Example 273, (2Z)-2-(1H-indol-3-ylmethylene)-1-benzothiophen-3(2H)-one] | 9620 nM | –
COc1cccc2c1O/C(=C\c1c[nH]c3ccc(OCc4ccccc4)cc13)C2=O [Example 43, (2Z)-2-{[5-(benzyloxy)-1H-indol-3-yl]methylene}-7-methoxy-1-benzofuran-3(2H)-one] | > 10000 nM | –
O=C1/C(=C/c2cn(Cc3ccccc3)c3ccccc23)Sc2ccccc21 [Example 282, (2Z)-2-[(1-benzyl-1H-indol-3-yl)methylene]-1-benzothiophen-3(2H)-one] | 1420 nM | –
Cc1ccc2c(c1)C(=O)/C(=C/c1c[nH]c3ccc(OCc4ccccc4)cc13)S2 [Example 295, (2Z)-2-{[5-(benzyloxy)-1H-indol-3-yl]methylene}-5-methyl-1-benzothiophen-3(2H)-one] | > 10000 nM | –
Cc1ccc2c(/C=C3\Sc4ccccc4C3=O)c[nH]c2c1 [Example 279, (2Z)-2-[(6-methyl-1H-indol-3-yl)methylene]-1-benzothiophen-3(2H)-one] | > 10000 nM | –
Cc1ccc2c(c1)C(=O)C(=Cc1c(C)[nH]c3ccc([N+](=O)[O-])cc13)S2 [Example 298, 5-methyl-2-[(2-methyl-5-nitro-1H-indol-3-yl)methylene]-1-benzothiophen-3(2H)-one] | 9190 nM | –
COc1cccc2c1O/C(=C\c1c(-c3ccc(F)cc3)[nH]c3ccccc13)C2=O [Example 37, (2Z)-2-{[2-(4-fluorophenyl)-1H-indol-3-yl]methylene}-7-methoxy-1-benzofuran-3(2H)-one] | 2350 nM | –
O=C1/C(=C/c2c(-c3ccccc3)[nH]c3ccccc23)Sc2ccc(Cl)cc21 [Example 283, (2Z)-5-chloro-2-[(2-phenyl-1H-indol-3-yl)methylene]-1-benzothiophen-3(2H)-one] | > 10000 nM | –
O=C1/C(=C/c2cn(Cc3ccccc3)c3ccccc23)Sc2ccc(Cl)cc21 [Example 287, (2Z)-2-[(1-benzyl-1H-indol-3-yl)methylene]-5-chloro-1-benzothiophen-3(2H)-one] | > 10000 nM | –
COc1ccc2c(c1)c(C=C1Oc3c(ccc(O)c3O)C1=O)cn2C [Example 85, 6,7-dihydroxy-2-[(5-methoxy-1-methyl-1H-indol-3-yl)methylene]-1-benzofuran-3(2H)-one] | 1150 nM | –

Structure (SMILES) | IC50 [1] | IC50 [2]
Cc1ccc2c(/C=C3\Oc4ccccc4C3=O)c[nH]c2c1 [Example 22, (2Z)-2-[(6-methyl-1H-indol-3-yl)methylene]-1-benzofuran-3(2H)-one] | > 10000 nM | –
O=C1/C(=C/c2c(-c3ccc4ccccc4c3)[nH]c3ccccc23)Oc2cc(O)ccc21 [Example 27, (2Z)-6-hydroxy-2-{[2-(2-naphthyl)-1H-indol-3-yl]methylene}-1-benzofuran-3(2H)-one] | 5470 nM | –
Cc1ccc2c(c1)C(=O)/C(=C/c1c[nH]c3c(C)cccc13)S2 [Example 293, (2Z)-5-methyl-2-[(7-methyl-1H-indol-3-yl)methylene]-1-benzothiophen-3(2H)-one] | > 10000 nM | –
COc1ccc2[nH]c(-c3ccccc3)c(C=C3Oc4cccc(O)c4C3=O)c2c1 [Example 79, 4-hydroxy-2-[(5-methoxy-2-phenyl-1H-indol-3-yl)methylene]-1-benzofuran-3(2H)-one] | 1650 nM | –
COc1ccc2c(c1)c(C=C1Oc3c(ccc(O)c3O)C1=O)c(C)n2CCCCN1CCOCC1 [Example 145, 6,7-dihydroxy-2-{[5-methoxy-2-methyl-1-(4-morpholin-4-ylbutyl)-1H-indol-3-yl]methylene}-1-benzofuran-3(2H)-one] | 825 nM | –
Cc1cccc2c(/C=C3\Sc4ccccc4C3=O)c[nH]c12 [Example 280, (2Z)-2-[(7-methyl-1H-indol-3-yl)methylene]-1-benzothiophen-3(2H)-one] | 4560 nM | –
Cn1cc(/C=C2\Oc3cc(O)cc(O)c3C2=O)c2ccccc21 [Example 16, (2Z)-4,6-dihydroxy-2-[(1-methyl-1H-indol-3-yl)methylene]-1-benzofuran-3(2H)-one] | – | 6950 nM
CN(c1ccccc1)c1cccc2c1c(/C=C1\Oc3cc(O)cc(O)c3C1=O)cn2C [Compound 542, (2Z)-4,6-dihydroxy-2-({1-methyl-4-[methyl(phenyl)amino]-1H-indol-3-yl}methylene)-1-benzofuran-3(2H)-one] | 359 nM | –
Cc1ccc2c(c1)C(=O)/C(=C/c1c(-c3ccccc3)[nH]c3ccccc13)S2 [Example 290, (2Z)-5-methyl-2-[(2-phenyl-1H-indol-3-yl)methylene]-1-benzothiophen-3(2H)-one] | 9170 nM | –
O=C1/C(=C/c2cn(Cc3ccccc3)c3ccccc23)Oc2cc(O)ccc21 [Example 33, (2Z)-2-[(1-benzyl-1H-indol-3-yl)methylene]-6-hydroxy-1-benzofuran-3(2H)-one] | > 10000 nM | –
COc1ccc2c(c1)c(C=C1Oc3c(ccc(O)c3O)C1=O)c(C)n2CCCCN1CCN(C)CC1 [Example 144, 6,7-dihydroxy-2-({5-methoxy-2-methyl-1-[4-(4-methylpiperazin-1-yl)butyl]-1H-indol-3-yl}methylene)-1-benzofuran-3(2H)-one] | 1600 nM | –
COc1cccc2c1O/C(=C\c1c(-c3ccc(Cl)cc3)[nH]c3ccccc13)C2=O [Example 35, (2Z)-2-{[2-(4-chlorophenyl)-1H-indol-3-yl]methylene}-7-methoxy-1-benzofuran-3(2H)-one] | 1940 nM | –
Cc1ccc2c(c1)C(=O)/C(=C/c1c(-c3ccc(Cl)cc3)[nH]c3ccccc13)S2 [Example 291, (2Z)-2-{[2-(4-chlorophenyl)-1H-indol-3-yl]methylene}-5-methyl-1-benzothiophen-3(2H)-one] | > 10000 nM | –
O=C1/C(=C/c2c[nH]c3ccccc23)Sc2ccc(Cl)cc21 [Example 281, (2Z)-5-chloro-2-(1H-indol-3-ylmethylene)-1-benzothiophen-3(2H)-one] | > 10000 nM | –
Cn1c(-c2ccccc2)c(C=C2Oc3cc(O)ccc3C2=O)c2ccccc21 [Example 7, 6-hydroxy-2-[(1-methyl-2-phenyl-1H-indol-3-yl)methylene]-1-benzofuran-3(2H)-one] | > 10000 nM | –
Cc1ccc2c(c1)C(=O)C(=Cc1c(-c3ccc4ccccc4c3)[nH]c3ccccc13)S2 [Example 296, 5-methyl-2-{[2-(2-naphthyl)-1H-indol-3-yl]methylene}-1-benzothiophen-3(2H)-one] | 12000 nM | –
COc1cccc2c1OC(=Cc1cn(C)c3ccccc13)C2=O [Example 12, 7-methoxy-2-[(1-methyl-1H-indol-3-yl)methylene]-1-benzofuran-3(2H)-one] | > 10000 nM | –
